In experiment [1] the test system is splenocytes. Kind of experiment: Ex vivo elispot assay on splenocytes of immunised HLA-DR1 / HLA-A2/DR1 (HHDII/DR1) transgenic mice. The experiment is classed as in vivo. As to the method: (§1) C57BL/6 mice (Charles River, UK), HLA-DR4 mice (Taconic, USA), HHDII mice (Pasteur institute, France) and HHDII/DRI mice (Pasteur institute, France) were used, aged between 8 and 12 weeks, and cared for by the staff at Nottingham Trent University. All work was carried out under a Home Office project license. Peptides were dissolved in 10% Dimethylformamide to 1 mg/ml and then emulsified (a series of dilutions) with different adjuvants: CpG and MPLA 6 μg/mouse of each (Invivogen, UK), Incomplete Freund's […] (Sigma, UK), and GMCSF 10 μg/mouse (Peprotech, UK). Peptides (25 μg/mouse) were injected subcutaneously at the base of the tail. DNA (1 μg/mouse) was coated onto 1.0 μm gold particles (BioRad, Hemel Hempstead, UK) using the manufacturer's instructions and administered intradermally by genegun (BioRad). Homspera (10 nM/mouse) (PeptideSynthetics, UK) was injected intradermally with genegun immunisation. Mice were immunized at either day 0 for peptide immunisation or days, 0, 7, and 14 for peptide and genegun immunisation. Spleens were removed for analysis at day 14 for peptide and day 20 for peptide or genegun immunisation unless stated otherwise. 400 μg Anti-CD25 antibody (PC61) was administered i.p. in saline 3 days prior to the immunisation. 200 μg Anti-CTLA-4 antibody (UC 10-4F, 10-11) was administered i.p. in saline at day 7 and 14 with either genegun or peptide immunisation.
(§2) Elispot assays were performed using murine IFNγ, IL-17 and IL-10 capture and detection reagents according to the manufacturer's instructions (Mabtech, Sweden). In brief, anti-IFNγ, IL-17 and IL-10 antibodies were coated onto wells of 96-well Immobilin-P plate. Synthetic peptides (at a variety of concentrations) and 5×10^5 per well splenocytes were added to the wells of the plate in triplicate. Tumour target cells were added where relevant at 5×10^4/well in triplicate and plates incubated for 40 hrs at 37° C. After incubation, captured IFNγ, […], IL-17 and IL-10 were detected by biotinylated anti-IFNγ, IL-17 and IL-10 antibodies and developed with a strepatavidin alkaline phosphatase and chromogenic substrate. Spots were analysed and counted using an automated plate reader (Cellular Technologies Ltd). Functional avidity was calculated as the concentration mediating 50% maximal effector function using a graph of effector function versus peptide concentration.

Experiment [2] relates to splenocytes. Description: Ex vivo elispot assay on splenocytes of immunised C57B1 mice. The experiment is classed as in vivo, C57BL/6 mice. Particulars: for IL-17 response, screening of citrullinated 20 mer peptides: combination of 3 citrullinated peptides (3×10 μg) with CpG and MPLA, day 14, C57B1/6 mice. As to the method: as §1, §2
Experiment [3] deals with splenocytes. Description: Ex vivo elispot assay on splenocytes of immunised HLA-DR4 transgenic mice. Type of experiment: in vivo. Conditions: for EC50: 25 μg peptide days 0, 7, 14, day 21; for IL-10 elispot responses: against wild type and citrullinated peptides; for IFNγ elispot response to citrullinated peptide, mean / IFNγ elispot response to wild type peptide, mean: day 14 splenocytes. As to the method: as §1, §2

Another experiment relates to Granzyme B. Kind of experiment: Granzyme B ELISA on supernatant of ex vivo IFNγ elispot. Particulars: immunised days 0, 7, 14 in CPG and MPLA. Type of experiment: cell-based, HLA-DR4 transgenic mice. The text has this: Supernatant from ex vivo IFNγ elispot assays on splenocytes was removed after 40 hrs and assessed for Granzyme B by elisa assay (R&D systems) according to manufacturer's instructions.

For a further experiment, the system named is T2 DR4 tumour cells. Kind of experiment: 51Cr-release assay, CTL lines from immunised mice against T2 DR4 cells. Type of experiment: cell-based. As to the method:
Target cells were labelled for 1 hr with 1.85 MBq sodium (^51Cr) chromate (Amersham, Essex, UK) with or without 10 μg/ml peptide. Post incubation they were washed 3 times in RPMI. Targets 5×10^3/well of a 96-well V-bottomed plates were set up and co incubated with different densities of effector cells in a final volume of 200 μl of RPMI, 10% FCS (Sigma), 20 mM HEPES buffer, 2 mM L-glutamine, 100 units/ml penicillin and 100 μg/ml streptomycin. After 20 hrs at 37° C., 50 μl of supernatants were removed from each well and transferred to a Lumaplate (Packard, Rigaweg, the Netherlands). Plates were read on a Topcount Microplate Scintillation Counter (Packard). Percentage specific lysis was calculated using the following formula: specific lysis=100×[(experimental release−spontaneous release)/(maximum release−spontaneous release)].

A further experiment concerns B16F1-DR4 cells. Description: Tumour challenge with B16F1-DR4 cells. The experiment is classed as in vivo, HLA-DR4 transgenic mice. Conditions: for anti-tumour response / survival: peptide 25 μg in CpG and MPLA s.c. or DNA via gene gun, days 4, 11, 18, versus unimmunised control. As to the method: (§3) For tumour challenge experiments mice were challenged with 2.5×10^4 B16 HHDII NYESO/TAP2 siβ2m 1F10 cells or B16 DR4 2E7 cells subcutaneously on the right flank 3 days prior to primary immunisation and then were immunised as above. Anti-IFNγ antibody (300 μg/dose), anti-IL-17 antibody (200 μg/dose) and anti-HLA-DR antibody (300 μg/dose) were administered i.p. in saline at days 2, 7, 11 and 14 post tumour implant. Anti-CD4 antibody (500 μg/dose) was administered i.p.in saline at days 2 and 8 post tumour implant. Tumour growth was monitored at 3-4 days intervals and mice were humanely euthanized once tumour reached ≥10 mm in diameter.

A further experiment concerns B16F1 cells. Kind of experiment: Tumour challenge with B16 tumour lacking HLA-DR0401. The experiment is classed as in vivo, HLA-DR4 transgenic mice. Conditions: B16 tumour lacking expression of HLA-DR0401; 25 μg peptide in CpG and MPLA. On the procedure:
as §3

The subject of a further experiment is PBMC. Description: Proliferation assay of PBMC from cancer patients. Type of experiment: cell-based, human. Particulars: PBMC stimulated with 10 μg/ml peptide for 4, 7 and 11 days, 3H-thymidine. On the procedure:
PBMC were isolated from freshly drawn heparinised blood by Ficol-Hypaque (Sigma) gradient centrifugation. PBMC (1.5×10^6 cells/well) were stimulated with single peptides (final concentration 10 μg/ml) in RPMI containing 5% pooled autologous human serum, 2 mM glutamine, 20 mM HEPES and Penicillin-streptomycin (1%) in a final volume of 2 ml. Stimulation with purified protein derivative, PPD (final concentration 10 μg/ml) served as a positive control for the proliferative capacity of PBMC. As a negative control PBMC were incubated with medium alone. The PBMC were cultured at 37° C. in an atmosphere of 5% CO2 for 4, 7 and 11 days. To assess proliferation at these times points 100 μl in triplicate from each culture was aliquoted into a round bottom well of a 96 well plate and ^3H-thymidine added (0.0185 MBq/well) and incubated at 37° C. for a further 8 hours. The cultures were harvested onto unifilter plates and incorporation of ^3H-thymidine was determined by β-scintillation counting. The results were assessed by calculating the stimulation index (SI) as the ratio of the mean of counts per minute (cpm) of epitope-stimulated to the mean of unstimulated cultures. The proliferative assay was considered positive when SI >2.5.

Experiment [4] has as its system splenocytes. Kind of experiment: Ex vivo elispot assay on splenocytes of immunised HLA-DR1 / HLA-A2/DR1 (HHDII/DR1) transgenic mice. Conditions: combination of 3 citrullinated peptides (3×10 μg) with CpG and MPLA; day 14; HLA-DR1 transgenic mice. Type of experiment: in vivo.
A further experiment has as its target T1, HLA-DR0401 (human).
T1 construct: also called purified HLA-DR0401; HLA-DR4
Description: competitive binding assay, plate-bound HLA-DR0401, biotinylated HA306-318 as competitor.

[5] abbreviates: 25 μg in MPLA and CPG s.c. days 0, 7, 14, HLA-DR1 transgenic mice.
Setting [6] is: 25 μg peptide with CpG and MPLA day 0, day 14.
Where [7] appears, read: 25 μg peptide with CpG and MPLA day 0, day 14, peptide 5 μM.
[8] abbreviates: 25 μg peptide with CpG and MPLA day 0, peptide 5 μM.
Where [9] appears, read: 25 μg peptide in CpG and MPLA s.c. days 4, 11, 18.
The mark [10] stands for this setting: 25 μg peptide with CpG and MPLA day 0, day 14, recall peptide not specified.

Like-named read-outs stand apart in the source and are kept apart here. Square brackets hold non-standard residues; d marks the D form. Ends that are not written are not given here. Cit = NC(=O)NCCC[C@H](N)C(=O)O

Turning to AQKKLKLVRTSPEYGMP, the “immune response after immunisation” value in the experiment on splenocytes [1] (HLA-DR1 transgenic mice) is recorded as “failed to stimulate any immune response”.

Consider “AQKKLKLVcitTSPEYGMP (AQKKLKLV[Cit]TSPEYGMP)”, for which, in the experiment on splenocytes [1] (setting [5]), the “IFNγ/IL-17 response to the citrullinated peptide, mean” value was determined as 200 spots/million splenocytes and the “IFNγ/IL-17 response to the wild type peptide” value is listed as “no response”. Moreover, the “response in presence of MHC class II blocking mab” value with splenocytes [1] (IFNγ elispot, HLA-A2/DR1 mice) is recorded as “blocked”.

On to EAENTLQSFRQDVDNASLA [Vimentin 20], for which the “IL-17 response, screening of citrullinated 20 mer peptides” value (from here on “IL-17 response, screening”) in the experiment on splenocytes [2] was roughly 400 spots/million splenocytes.

Turning to EKLQEEMLQREEAENTLQS [Vimentin 19], the “IL-17 response, screening” value in the experiment on splenocytes [2] was roughly 400 spots/million splenocytes.

With “LPNFSSLNLRETNLDSLPL [citrullinated vim 415]”, the EC50 with splenocytes [3] (anti-CTLA-4 days 7 and 14, IFNγ elispot, read-out: avidity of the T cell response in the presence of an anti-CTLA-4 mab) is 10 nM. The EC50 with splenocytes [3] (IFNγ elispot, read-out: avidity of the T cell response without anti-CTLA-4 mab) worked out at 1000 nM. For the same molecule, in the experiment on splenocytes [3] (25 μg peptide s.c., day 14), the “IFNγ/IL-17 response with alum or IFA” value is on record as “no response”; the “IFNγ/IL-17 responses with CpG/MPLA, GMCSF and TMX201 adjuvants” value is listed as “Potent IFNγ/IL-17 responses”; the “IL-10 responses to the citrullinated peptides with IFA” value is “high frequency IL-10 responses”. For the same molecule, the IL-10 elispot responses entry with splenocytes [3] (setting [6]) is given as “No significant IL-10 responses”. Also, in the experiment on splenocytes [3] (setting [7]), the “IL-2 elispot response to citrullinated peptide, mean” value is given as 350 /million splenocytes; the “IL-2 elispot response to wild type peptide” value is on record as “no response”; the “IL-17 elispot response to citrullinated peptide, mean” value is reported as 530 /million splenocytes; the “IL-17 elispot response to wild type peptide, mean” value is 140 /million splenocytes. Also, in the experiment with splenocytes [3] (setting [8]), the “IFNγ elispot response to citrullinated peptide, mean” value was 1000 /million splenocytes and the “IFNγ elispot response to wild type peptide, mean” value is “no responses”. Besides, the “response after depletion of CD4 cells or addition of MHC class II blocking antibody” value in the experiment on splenocytes [3] (IFNγ elispot, L243 antibody, FIG. 15) is “CD4 mediated”. Further, the “T cell responses to mouse vim 415 cit versus human vim 415 cit” value in the experiment with splenocytes [3] (immunised with 25 μg human peptide day 0, day 14, IFNγ and IL-17 elispot) is on record as “equal responses to both peptides”. Further, the “T helper phenotype when immunised with complete Freund's adjuvant” value in the experiment with splenocytes [3] (mouse, in vivo) is on record as “Th1/IL-17 phenotype”. In addition, in the experiment on Granzyme B, the “Granzyme B release upon stimulation with citrullinated peptides” value is “release of Granzyme B”. Further, the “killing of normal splenocytes” value with T2 DR4 tumour cells (DR4 splenocytes) is reported as “no killing of normal splenocytes”. The “killing of T2 tumour cells transfected with human DR4” value in the experiment on T2 DR4 tumour cells (targets pulsed with peptide or not) is “killed transfected targets whether they were pulsed with the appropriate peptide or not”. Also, in the experiment with B16F1-DR4 cells (setting [9]), the “mice cured of their tumour” value was determined as 30% and the “mice with no tumour at day 35” value amounted to 50%. In addition, the “anti-tumour response in combination with anti-HLA-DR blocking antibody” value with B16F1-DR4 cells (B16 tumour expressing HLA-DR0401) is recorded as “prevents the anti-tumour response”. Moreover, the “anti-tumour response with blockade of IFNγ in vivo” value in the experiment with B16F1-DR4 cells (IFNγ neutralising monoclonal antibody) is listed as “abrogates”. The “anti-tumour response with blockade of IL-17 in vivo” value in the experiment with B16F1-DR4 cells (IL-17 neutralising antibody) is on record as “low significant influence”. In the experiment with B16F1-DR4 cells (clone GK1.5), the “anti-tumour response in combination with CD4 T cell depletion (anti-CD4 antibody)” value is given as “totally abrogates the anti-tumour response”. In addition, the “anti-tumour response / survival” value in the experiment on B16F1-DR4 cells was “strong anti-tumour responses”. The “response after peptide immunisation” value with splenocytes [2] (C57B1 mice) is on record as “failed to raise a response”. Also, the “response after peptide immunisation” value in the experiment with splenocytes [1] (HHD1/DR1 mice) is given as “failed to raise a response”. Besides, in the experiment with B16F1 cells, the “tumour growth and survival” value is given as “failed to show any tumour response”. Further, in the experiment on PBMC (listed as citrullinated vim 415-433), the “patients showing a proliferative response (SI >2.5)” value was 5/11. Further, in the experiment with PBMC (listed as vim 415 cit), the “patients showing a proliferative response (SI >2.5)” value is “Five of eight”.

Consider RLRSSVPGVRLLQDSVDFS [Vimentin 10], for which, in the experiment on splenocytes [4], the “IL-17 response, screening” value was determined as 350 spots/million splenocytes.

Regarding “RSYVTTSTRTYSLGSALRPSTS [wild type vim 28-49]”, the IL-10 elispot responses entry in the experiment on splenocytes [3] (setting [6]) is “No significant IL-10 responses”. In the experiment with splenocytes [3] (setting [10]), the IL-2 elispot responses result was “weak” and the IL-17 elispot responses result is “weak”. In the experiment with splenocytes [3] (setting [8]), the “IFNγ elispot response to citrullinated peptide, mean” value is 1,100 /million splenocytes and the “IFNγ elispot response to wild type peptide, mean” value is listed as 700 /million splenocytes. Also, the “anti-tumour response / survival” value in the experiment on B16F1-DR4 cells is listed as “anti-tumour response that almost reached significance”. In the experiment with PBMC, the “patients showing a proliferative response (SI >2.5)” value was “Two of eight”. Also, the “patients showing a proliferative response (SI >2.5)” value in the experiment with PBMC (listed as Wild type vim 28-49 peptide) is recorded as 2/11.

As for RSYVTTSTRTYSLGSALRPSTS (also called vim 28-49; vim 28) [Vimentin 28-49 wild type peptide], the binding result in the experiment with HLA-DR0401 was “binds”.

The values above are taken from patent US12258377B2 (Scancell Limited, priority 2012, dated 2025).
